Measured values as given in patent US20230026696A1, “TRPV4 RECEPTOR LIGANDS” (UNIVERSITY OF UTAH RESEARCH FOUNDATION, priority 2019, published 2023).
pIC50: −log10 of the molar value.

Experiments:
[1] = system: intraocular pressure (IOP); assay: In vivo tonometric IOP assay in microbead mouse model of ocular hypertension; settings: FIG. 2 right panel; P<0.01 / P<0.001, two-way ANOVA
Protocol: FIG. 1 is a graph showing the effect that two concentrations of topical compound 11 (0.01% and 0.1%), 0.5% timolol, and control PBS had on IOP in the microbead (MB) mouse model of ocular hypertension (N=3 separate experiments, with 7-10 mice per experimental cohort). Error bars=±S.E.M. Ocular hypertension in the mouse model of primary open angle glaucoma (POAG) was induced with intracameral injection of polystyrene microbeads. Antagonist stock solutions (10 mM) were prepared in DMSO, the final concentrations were made in PBS diluted to <0.0001% DMSO.
FIG. 2 is a bar chart showing the cumulative data for pre-IOP elevation cohorts of mouse eyes (N≥3 separate experiments, with 7-10 mice per experimental cohort). Left panel: the IOP data are plotted as % of the control value of the timolol-treated eye cohort. Middle panel: MB injection elevated IOP in all experimental cohorts.
A tonometric assay was used to measured IOP changes in mice models of ocular hypertension over a period of weeks following topical application of the compounds.
To prepare the mice models of ocular hypertension, mice were anesthetized with an intraperitoneal (IP) injection of ketamine/xylazine (90 mg/10 mg/kg of body weight). Eye drops of 0.5% proparacaine hydrochloride with 1% tropicamide ophthalmic solution (Bausch & Lomb) were applied to numb and dilate the eyes of the mice. IOP was elevated in the ipsilateral eye by injecting 2 μl of polystyrene microbeads (7.8 μm FluoSpheres; Bangs Laboratories) with a Hamilton syringe into the anterior chamber over 60 seconds. The contralateral eye was injected with phosphate buffered saline (PBS).
A rebound tonometer was used to measure IOP at 1, 2, 6 and 10 hours post-injection after topical administration of Compounds 11 and 52 and timolol, a known medication for treatment of IOP associated with ocular hypertension and glaucoma. The IOP was determined from the means of 10 to 20 readings, following the protocol described in Ryskamp et al., Sci Rep 6:30583, 2016. […]

TRPV3 = target: T1, TRPV3 (Homo sapiens, UniProt Q8NET8); assay: Selectivity Ca2+ flux assay, TRPV3 stably over-expressed in HEK-293 cells; format: cell-based; settings: agonist carvacrol (300 μM)
T1 construct: expressed in transfected cells
T1 sequence (Q8NET8 1-790): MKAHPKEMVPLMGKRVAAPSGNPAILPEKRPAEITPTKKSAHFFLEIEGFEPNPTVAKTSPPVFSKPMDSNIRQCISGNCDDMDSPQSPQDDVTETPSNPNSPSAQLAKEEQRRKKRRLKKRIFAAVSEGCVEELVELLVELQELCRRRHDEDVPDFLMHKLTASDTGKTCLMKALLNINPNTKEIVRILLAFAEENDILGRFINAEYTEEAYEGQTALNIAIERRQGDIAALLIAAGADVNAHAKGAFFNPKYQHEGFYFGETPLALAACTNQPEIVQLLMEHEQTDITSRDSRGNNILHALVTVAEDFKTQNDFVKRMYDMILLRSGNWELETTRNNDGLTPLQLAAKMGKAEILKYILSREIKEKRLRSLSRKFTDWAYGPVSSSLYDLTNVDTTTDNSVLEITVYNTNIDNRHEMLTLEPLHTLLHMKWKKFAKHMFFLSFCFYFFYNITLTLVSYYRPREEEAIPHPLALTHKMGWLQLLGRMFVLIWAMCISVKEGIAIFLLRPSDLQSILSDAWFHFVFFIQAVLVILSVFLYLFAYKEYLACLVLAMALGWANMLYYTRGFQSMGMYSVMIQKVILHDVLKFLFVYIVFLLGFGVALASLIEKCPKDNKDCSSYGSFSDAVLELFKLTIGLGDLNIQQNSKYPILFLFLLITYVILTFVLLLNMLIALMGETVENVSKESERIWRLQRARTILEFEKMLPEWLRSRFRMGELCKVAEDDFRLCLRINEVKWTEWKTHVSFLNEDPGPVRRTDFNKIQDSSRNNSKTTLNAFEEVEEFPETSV
Protocol: To determine selectivity of the various test compounds for TRPV4, select compounds with activity in the TRPV4 fluorometric cell-based Ca^2+ flux assays were also tested for inhibition of human TRPA1 stably over-expressed in HEK-293 cells, TRPM8 stably over-expressed in HEK-293 cells, TRPV3 stably over-expressed in HEK-293 cells, and TRPV1 stably overexpressed in human lung epithelial (BEAS-2B) cells. The assays were conducted substantially as described above for HEK-293 cells that stably overexpress TRPV4, although for TRPV1, the BEAS-2B cells were maintained in LHC-9 media containing Geneticin (300 μg/mL) and were loaded with Fluo-4AM at room temperature. The agonist for TRPA1 was 2,4-ditert butylphenol (50 μM), for TRPM8 was icilin (50 μM), for TRPV3 was carvacrol (300 μM), and for TRPV1 was nonivamide (5 μM). All other aspects of the assay described above were the same.

[2] = system: intraocular pressure (IOP); assay: In vivo IOP assay in dog model of ocular hypertension (ADAMTS10 Beagles)
Protocol: Homozygous Beagels with autosomal recessive missense mutation in the ADAMTS10 gene develop significant IOP elevations due to decreased outflow facility for aqueous humor, resulting in open angle glaucoma that manifests as optic nerve head cupping and optic neuropathy.
8 drops of Compound 52 (200 mM in hydroxypropyl methylcellulose solution, stock dissolved in DMSO) were administered to the Beagels at 7 AM for 1.5 hours. Control eyes received the vehicle (hydroxypropyl methylcellulose eyedrop with proper dilution of DMSO). IOP was measured by tonometry at 9:00 AM (6 readings per event, averaged) in dogs under topical anesthesia (N=5 OAG, N=5 non-symptomatic dogs). General ophthalmic examinations were performed by slit lamp biomicroscopy (Kowa SL-17 Portable Slit Lamp; Kowa Company, Ltd.) and indirect ophthalmoscopy (Keeler All Pupil II headset; Keeler Instruments; Pan Retinal 2.2D condensing lens; Volk Optical) to detect potential treatment-related adverse effects.

| SMILES | IOP levels in MB-treated eyes, topical application [1] | pIC50 (TRPV3) | average IOP after topical application ([2]; ocular hypertensive dogs, mean baseline IOP 45.5 mm Hg, 8 drops, 200 mM in hydroxypropyl methylcellulose) [mm Hg] | tolerability in dogs ([2]; topical, N=10) | signs of ocular discomfort or conjunctival hyperemia ([2]; topical, N=10, slit lamp and ophthalmoscopy) |
| --- | --- | --- | --- | --- | --- |
| N#Cc1ccc(OCC2(CO)CN(S(=O)(=O)c3ccc(Cl)cc3Cl)C2)cc1F [Compound 11, 4-((1-((2,4-Dichlorophenyl)sulfonyl)-3-(hydroxymethyl)azetidin-3-yl)methoxy)-2-fluorobenzonitrile] | significantly lowered IOP levels | < 4.00 | – | – | – |
| Cl.N#Cc1ccc(OCC2(N)CN(S(=O)(=O)c3ccc(Cl)cc3Cl)C2)cc1F [Compound 52, 4-((3-Amino-1-((2,4-dichlorophenyl)sulfonyl)azetidin-3-yl)methoxy)-2-fluorobenzonitrile hydrochloride salt] | significantly lowered IOP levels | < 4.00 | 36.6 | well-tolerated | no observable signs of ocular discomfort or conjunctival hyperemia |
